Source: patent US20250281391A1, “EFFERVESCENT COMPOSITION AND METHOD FOR DETERMINING BITTERNESS PERCEPTION” (BAYER HEALTHCARE LLC, priority 2024, published 2025)

Assay: Electric potential experiment (degree of carbonation, carbon dioxide electrode) as surrogate of bitterness perception
Type: physicochemical
Settings: Sol. Nos. 26-28, acetaminophen as the API, 100 mL deionized water
Experimental: Formulations comprising the effervescent combination (sodium bicarbonate and citric acid) and molecules/compositions that impart a bitter taste (such as APIs or compositions comprising APIs) can be prepared according to Tables 1-5 below. Exemplary formulations according to the disclosure were made according to the following general procedure. 100 mL of deionized water from MILLI-Q® Q-POD® water purifier (having about 1.9 ppb total organic content) was weighed out in an appropriately sized glass beaker. The ingredients mentioned in Tables 1-5 below were weighed out and added to the glass beaker containing deionized water, and then the mixture was stirred for 15 minutes until the blend is homogenous. Each ingredient was sieved through a mesh 18 strainer ([…] strainer size means particles won't be greater than 0.0394 inches (1000 microns or 1 mm) in diameter) to remove clumps before weighing. The METTLER TOLEDO® XP6035S was used to measure ingredient weight, but any suitable weighing balance may be used.
Various combinations of bitter tasting molecules/compositions (e.g., APIs or compositions comprising APIs) along with the effervescent combination were prepared as solutions (see Sol. Nos. 1-36 in FIG. 1) per the general procedure described in Example 1. For the electric potential experiment, after the solutions were stirred, a carbon dioxide electrode (which measures the degree of carbonation) was dipped in the glass beaker to assess degree of carbonation (unit is electric potential in mV). The THERMO SCIENTIFIC™ ORION™ VSTAR PRO™ 9502BNWP carbon dioxide electrode was used to measure electrical potential (mV). The METTLER TOLEDO SEVENCOMPACT™ PH meter PD-470 was used to measure the pH. […] The carbon dioxide electrode was rinsed with deionized water and cleaned with a lint free tissue in between samples.

average electric potential (including 0.300 g of the effervescent combination (low end)): 22.24 mV
average electric potential (including 0.400 g of the effervescent combination): 30.4 mV
average electric potential (including 0.500 g (high end) of the effervescent combination): 35.67 mV
SMILES: CC(=O)Nc1ccc(O)cc1 [acetaminophen]
